Data published in US6046228A, “Anti-viral pharmaceutical compositions containing saturated 1,2-dithiaheterocyclic compounds and uses thereof” (priority 1999, dated 2000).

What was measured:
HIV-1NL4-3 A986 = experiment: XTT cytopathicity assay, NL4-3 site-directed RT mutant; assay type: cell-based; settings: MT-2, NL4-3 A986
Description: (§1) Initial anti-HIV screening was performed with CEM-SS cells and HIV-1RFusing the XTT cytoprotection assay as previously described (Weislow et al., J. National Cancer Inst. 81: 577-586, (1989)). HIV-1 isolates included common laboratory stains (RF, IIIB and MN), as well as a panel of HIV-1 clinical isolates (Cushman et al., J. Med. Chem. 37: 3040-3050, (1994)). The pyridone-resistant HIV-1A17 isolate (Nunberg et al., J. Virol., 65: 4887-4892 (1991)) was obtained from Emilio Emini at Merck Sharpe and Dohme Laboratories. Phytohemagglutinin-stimulated human peripheral blood lymphocytes (PBLs) and fresh monocyte-macrophage (Mono/MF) cultures were prepared and utilized in antiviral assays as previously described (Rice et al., Proc. Nat'l. Academy Science, USA 90: 9721-9724, (1993)); (Cushman et al., J. Med. Chem. 37: 3040-3050, (1994)). EC50 values for these cultures indicate the drug concentration that provided a 50% reduction in viral p24 production. […] The compounds can be synthesized according to the teachings of Singh et al., Sulfur Letters 8: 107-114, (1988). The 4,5-cis-dihydroxy(1,1-dioxy-1,2,-dithiohexane) compound (NSC 624151) has been abbreviated as 624151 for convenience. MT-2, MT-4, U1, HeLa-CD4-LTR-β-gal and 174xCEM cells were obtained from the AIDS Research and Reference Program (National Institute of Allergy and Infectious Disease, National Institutes of Health, Bethesda, Md. USA), as were the HIV-2MS and the AZT-resistant HIV-1G910-6 isolates.
(§2) ^a Anti-HIV studies utilizing lymphocytederived cell lines were
(§3) performed using the XTT cytopathicity assay, while antiviral assays

HIV-1NL4-3 V1061 = experiment: as above; assay type: cell-based; settings: MT-2, NL4-3 V1061
Description: as §1, §2, §3

HIV-1NL4-3 Y188C = experiment: as above; assay type: cell-based; settings: MT-2, NL4-3 Y188C
Description: as §1, §2, §3

HIV-1 Clade C = experiment: XTT cytopathicity assay, HIV-1 clade; assay type: cell-based; settings: CEM-SS
Description: as §1, §2, §3

HIV-1 Clade F = experiment: XTT cytopathicity assay, HIV-1 clade; assay type: cell-based; settings: CEM-SS
Description: as §1, §2, §3

HIV-1 Clade A = experiment: XTT cytopathicity assay, HIV-1 clade; assay type: cell-based; settings: CEM-SS
Description: as §1, §2, §3

HIV-1 Clade D = experiment: XTT cytopathicity assay, HIV-1 clade; assay type: cell-based; settings: CEM-SS
Description: as §1, §2, §3

HIV-1 Clade B = experiment: XTT cytopathicity assay, HIV-1 clade; assay type: cell-based; settings: CEM-SS
Description: as §1, §2, §3

HIV-1 OC-100 = experiment: XTT cytopathicity assay, drug resistant HIV-1; assay type: cell-based; settings: MT-2, OC-100
Description: as §1, §2, §3

HIV-1 DPS-181 = experiment: XTT cytopathicity assay, drug resistant HIV-1; assay type: cell-based; settings: MT-2, DPS-181
Description: as §1, §2, §3

HIV-1 Calo-139 = experiment: XTT cytopathicity assay, drug resistant HIV-1; assay type: cell-based; settings: MT-2, Calo-139
Description: as §1, §2, §3

HIV-1 E-BPTU-181 = experiment: XTT cytopathicity assay, drug resistant HIV-1; assay type: cell-based; settings: MT-2, E-BPTU-181
Description: as §1, §2, §3

HIV-1 HEPT-236 = experiment: XTT cytopathicity assay, drug resistant HIV-1; assay type: cell-based; settings: MT-2, HEPT-236
Description: as §1, §2, §3

HIV-1 UC38-181 = experiment: XTT cytopathicity assay, drug resistant HIV-1; assay type: cell-based; settings: MT-2, UC38-181
Description: as §1, §2, §3

HIV-1 Thiazol-108 = experiment: XTT cytopathicity assay, drug resistant HIV-1; assay type: cell-based; settings: MT-2, Thiazol-108
Description: as §1, §2, §3

HIV-1 TIBO-98/100 = experiment: XTT cytopathicity assay, drug resistant HIV-1; assay type: cell-based; settings: MT-2, TIBO-98/100
Description: as §1, §2, §3

HIV-2ROD = experiment: XTT cytopathicity assay, other retroviruses; assay type: cell-based; settings: Human immunodeficiency virus 2, CEM-SS
Description: as §1, with “MT-2, MT-4, U1, HeLa-CD4-LTR-β-gal and 174xCEM cells were obtained from the AIDS Research and Reference Program (National Institute of Allergy and Infectious Disease, National Institutes of Health, Bethesda, Md. USA), as were the HIV-2MS and the AZT-resistant HIV-1G910-6 isolates.” left out

HIV-1 VIHU(NSI) = experiment: antiviral assay in PBL (p24), clinical isolate VIHU; assay type: cell-based; settings: Human immunodeficiency virus 1, cell-free p24
Description: as §1, with “MT-2, MT-4, U1, HeLa-CD4-LTR-β-gal and 174xCEM cells were obtained from the AIDS Research and Reference Program (National Institute of Allergy and Infectious Disease, National Institutes of Health, Bethesda, Md. USA), as were the HIV-2MS and the AZT-resistant HIV-1G910-6 isolates.” left out

gp120-CD4 = molecular target: T1, gp120-CD4 (UniProt P01730+P03375); experiment: gp120-CD4 binding, antigen capture ELISA; parameters: species or system HIV-1
T1 construct: purchased
Description: Binding of HIV-1RF to PBLs was measured by a p24-based assay (Rice, et al., Proc. Nat'l. Academy of Science USA 90: 9721-9724, (1993)). Briefly, 5×10^5 PBLs were incubated with a concentrated stock of virus for 30 min. at 37° C. in the absence or presence of various concentrations of 624151, the unbound virus was washed away, and the cell-associated virus was solubilized in 1% Triton X-100, 1% BSA and analyzed by the p24 antigen capture assay as previously described. The binding of gp120to CD4 was analyzed using an antigen capture ELISA. All steps of the assay were carried out according to the manufacturer's protocols.
^.dagger. Attachment of HIV1 to fresh human PBLs, binding of gp120 to
CD4, and the effects of compounds on HIV1 RT and protease were quantitate

HIV-1 Ba-L = experiment: antiviral assay in Mo/M.PHI. (p24), Ba-L; assay type: cell-based; settings: Human immunodeficiency virus 1, BAL, cell-free p24
Description: as §1, with “MT-2, MT-4, U1, HeLa-CD4-LTR-β-gal and 174xCEM cells were obtained from the AIDS Research and Reference Program (National Institute of Allergy and Infectious Disease, National Institutes of Health, Bethesda, Md. USA), as were the HIV-2MS and the AZT-resistant HIV-1G910-6 isolates.” left out

HIV-1 6R(AZT^R) = experiment: XTT cytopathicity assay, AZT-resistant 6R; assay type: cell-based; settings: MT-4, 6R(AZT^R)
Description: as §1, with “MT-2, MT-4, U1, HeLa-CD4-LTR-β-gal and 174xCEM cells were obtained from the AIDS Research and Reference Program (National Institute of Allergy and Infectious Disease, National Institutes of Health, Bethesda, Md. USA), as were the HIV-2MS and the AZT-resistant HIV-1G910-6 isolates.” left out

**Q.** Which results are given for `O=S1(=O)C[C@H](O)[C@H](O)CS1` (relative stereo) [NSC 624151, cis-1,1-dioxo[1,2]dithiane-4,5-diol]?
**A.** EC50 (HIV-1NL4-3 A986): 26.5 µM; EC50 (HIV-1NL4-3 V1061): 20.8 µM; EC50 (HIV-1NL4-3 Y188C): 19.4 µM; EC50 (HIV-1 Clade C): 2.9 µM; EC50 (HIV-1 Clade F): 69 µM; EC50 (HIV-1 Clade A): 22 µM; EC50 (HIV-1 Clade D): 20 µM; EC50 (HIV-1 Clade B): 5.5 µM; EC50 (HIV-1 OC-100): 12.7 µM; EC50 (HIV-1 DPS-181): 16.5 µM; EC50 (HIV-1 Calo-139): 15 µM; EC50 (HIV-1 E-BPTU-181): 17 µM; EC50 (HIV-1 HEPT-236): 16 µM; EC50 (HIV-1 UC38-181): 17 µM; EC50 (HIV-1 Thiazol-108): 17 µM; EC50 (HIV-1 TIBO-98/100): 16 µM; EC50 (HIV-2ROD): 15.6 µM; EC50 (HIV-1 VIHU(NSI)): 12 µM; inhibition of gp120-CD4 interaction (gp120-CD4; in words): did not inhibit; IC50 (gp120-CD4; read-out: gp120-CD4 ID50): > 100 µM; EC50 (HIV-1 Ba-L): 6.2 µM; EC50 (HIV-1 6R(AZT^R)): 7.2 µM
